Data reported in patent US8535904B2, “Method of enhancing skin barrier function” (Pola Chemical Industries Inc., priority 2006, dated 2013).

Assays:
[1] = system: normal human epidermal keratinocytes (NHEK); experiment: Calcium ion permeation through cultured normal human epidermal keratinocyte layer (Transwell, Arsenazo III quantification); format: cell-based; conditions: 10^-1% test substance; calcium loaded concentration 5 mM; control = test substance concentration 0; FIG. 5/FIG. 6
Method: Frozen normal human epidermal keratinocytes (NHEK) (manufactured by Kurabo Industries Ltd.) were thawed and cultured in a 0.15 mM Ca-containing culture medium (Humedia-KG2; manufactured by Kurabo Industries Ltd.) at 37° C. in 50% carbon dioxide atmosphere. A Transwell (registered trademark) manufactured by Corning Incorporated (diameter 12 mm, polyethylene terephthalate, 0.4 μm pore) was placed on a Millicell (registered trademark) tissue culture plate (manufactured by Millipore), and the above-mentioned culture medium was added in amounts of 1.5 ml to the lower layer and 0.5 ml to the upper layer. […]
The recovered samples were quantified with quantification reagents {Ca-Arsenazo-III, Mg-Xylidyl blue I (both are manufactured by Fluka)}. […] The net flux (mass transfer per unit time and unit area) was calculated from the quantification results, and Ca and Mg ion permeability coefficients were calculated by the following formula.
a) 7.76 mg of Arsenazo III was dissolved in 100 μl of 1N NaOH, and the volume of the solution was adjusted to 50 ml with the apical solution for Ca prepared in Table 1 (Ca quantification solution). […]
c) In order to quantify Ca in a sample, the Ca quantification solution and the sample were each added to the plate in an amount of 50 μl/well to measure ODs (600). […]

[2] = system: normal human epidermal keratinocytes (NHEK); experiment: TER (transepithelial electrical resistance) of cultured normal human epidermal keratinocyte layer; format: cell-based; conditions: 10^-4 v/v % in culture medium; TER measured at addition and 1, 2, 3, 4 days later; FIG. 7
Method: Frozen normal human epidermal keratinocytes (NHEK) (manufactured by Kurabo Industries Ltd.) were thawed and cultured in a 0.15 mM Ca-containing culture medium (Humedia-KG2; manufactured by Kurabo Industries Ltd.) at 37° C. in […] atmosphere. A Transwell manufactured by Corning Incorporated (diameter 12 mm, polyethylene terephthalate, 0.4 μm pore) was placed on a Millicell tissue culture plate (manufactured by Millipore), and the above-mentioned culture medium was added in amounts of 0.5 ml to the upper layer and 1.5 ml to the lower layer. Then, the normal human epidermal keratinocytes (NHEK) were inoculated at 1×10^5/cm^2 and cultured for additional 72 hours. […] Thereafter, the medium was exchanged for a culture medium containing 10^−4 v/v % α,ε-bis(γ-N-lauroylglutamyl)lysine (Pellicer L-30 (registered trademark) (hereinafter, referred to as Pellicer); manufactured by Asahi Kasei Corporation), and TERs were measured. The culture was further continued, and one, two, three, and four days later, TERs were measured.
Frozen normal human epidermal keratinocytes (NHEK) (manufactured by Kurabo Industries Ltd.) were thawed and cultured in a 0.15 mM Ca-containing culture medium (Humedia-KG2; manufactured by Kurabo Industries Ltd.) at 37° C. in 50% carbon dioxide atmosphere. […] The culture was further continued, and one, two, three, and four days later, TERs were measured.

Row | SMILES | inhibition of the transference of a calcium ion (calcium ion permeation ratio vs control) [1] | TER (resistance value) compared with the control [2]
1 | C[N+](C)(C)C[C@H](O)CC(=O)[O-] [L-carnitine, reference compound] | had ability to inhibit the transference of a calcium ion | –
2 | CCCCCCCCCCCC(=O)N[C@@H](CCC(=O)NCCCC[C@H](NC(=O)CC[C@H](NC(=O)CCCCCCCCCCC)C(=O)O)C(=O)O)C(=O)O [Pellicer, α,ε-bis(γ-N-lauroylglutamyl)lysine] | – | increased resistance value compared with the control
3 | N[C@@H](CCCCNC(=O)CC[C@H](N)C(=O)O)C(=O)O [ε,γ-glutamyl lysine] | had ability to inhibit the transference of the calcium ion | –
